# Patent US11299496B2, “Ligands for alpha-7 nicotinic acetylcholine receptors and methods of treating neurological and inflammatory conditions” (Northeastern University, priority 2014, dated 2022)
# What was measured:
# [1] = biological target: T1, human alpha-7 nAChR (Homo sapiens, UniProt P36544); test: Electrophysiological evaluation of PAMs and ago-PAMs in Xenopus oocytes (direct activation, direct and primed potentiation); format: cell-based
# T1 construct: expressed in transfected cells; host or cells: Xenopus laevis oocytes (cRNA injection)
# Excerpt: Electrophysiological evaluation in Xenopus oocytes was used to determine the potency and efficacy with which PAMs and ago-PAMs of the invention produce self-induced agonism and positive allosteric modulation of the orthosteric, agonist-induced activation of the alpha-7 nAChR. The ability of these compounds to increase the maximal channel influx and to enhance the activity of the receptor on its own as well as in presence of choline is denoted by Imax and EC50 respectively. The details of cDNA clones and RNA for injection was as published. Thakur et. al. 2013, J. Med. Chem. 2013 Nov. 14; 56(21):8943-7. doi: 10.1021/jm401267t). For experiments involving PAM and ago-PAM analogs, where standard levels of expression result in ion currents too large to be recorded in voltage clamp, experiments were typically conducted 1-3 days after RNA injection.
# Two-electrode voltage clamp was conducted using OpusXpress 6000A (Molecular Devices, Union City, Calif.). Both the voltage and current electrodes were filled with 3 M KCl. Oocytes were voltage-clamped at −60 mV except when determining the effect of voltage on channel activation. The oocytes were bath-perfused with Ringer's solution (115 mM NaCl, 2.5 mM KCl, 1.8 mM CaCl2, 10 mM HEPES, and 1 μM atropine, pH 7.2) with a flow rate of 2 mL/min. To evaluate the effects of experimental compounds on ACh-evoked responses of alpha-7 nAChRs expressed in oocytes, the initial control responses were measured with two applications of ACh alone, before applications of experimental drugs alone or co-applications with ACh. The agonist solutions were applied from a 96-well plate via disposable tips, and the drugs were either co-applied with ACh by the OpusXpress pipette delivery system or bath-applied using the OpusXpress system to switch the running buffer. Drug applications were for 12 s followed by a 181 s washout period and usually alternated between controls and test solutions. After experimental drug applications, follow-up control applications of ACh were made to determine primed potentiation, desensitization or rundown of the receptors. Data were collected at 50 Hz, filtered at 20 Hz, analyzed by Clampfit 9.2 (Molecular Devices) and Excel (Microsoft, Redmond Wash.), and normalized to the averaged current of the two initial control responses. Data were expressed as mean±SEM from at least four oocytes for each experiment. For the concentration-response relationships, responses were normalized to the net charge of the most adjacent prior control.
# A detailed comparative activity profile of select ago-PAMs/PAMs based on the structure of 4BP-TQS was obtained. […] They also functioned as direct PAMs, producing responses when co-applied with ACh. However, the primed potentiation of response to ACh alone was less after direct potentiation than after direct activation, due to residual induction of PAM-insensitive desensitization.
# [2] = biological target: T1, human alpha-7 nAChR; test: Two-electrode voltage clamp of alpha-7 nAChR expressed in Xenopus oocytes (net charge); format: cell-based; details: for Charge Alone: compound alone acting as an allosteric agonist; for Charge Alone / Charge +C: area under the curve of current vs. time; for Charge +C: compound together with choline or ACh, includes PAM and ago-PAM activity
# Procedure, shortened: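 Human α7 nAChR co-expressed with RIC-3 in Xenopus oocytes; two-electrode clamp at −60 mV, 12 s applications in Ringer's pH 7.3. Net charge integrated over 120 s from application, normalized to prior ACh controls; measured for compound alone and with choline or ACh; n≥4 oocytes.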
# T1 sequence (P36544 23-502): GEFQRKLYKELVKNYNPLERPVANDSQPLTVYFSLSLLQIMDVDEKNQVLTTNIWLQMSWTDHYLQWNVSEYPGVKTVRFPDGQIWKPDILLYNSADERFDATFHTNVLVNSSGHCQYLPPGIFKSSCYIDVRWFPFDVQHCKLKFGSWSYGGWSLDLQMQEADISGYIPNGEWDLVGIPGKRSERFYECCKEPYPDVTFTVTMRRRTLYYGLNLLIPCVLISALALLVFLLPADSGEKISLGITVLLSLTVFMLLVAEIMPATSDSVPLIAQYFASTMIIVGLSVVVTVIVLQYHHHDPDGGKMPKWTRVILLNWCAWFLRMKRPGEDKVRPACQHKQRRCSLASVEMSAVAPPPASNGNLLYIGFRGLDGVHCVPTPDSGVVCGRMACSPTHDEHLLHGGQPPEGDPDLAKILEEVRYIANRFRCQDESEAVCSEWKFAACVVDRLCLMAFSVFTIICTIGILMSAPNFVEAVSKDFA
SMILES,Charge Alone [2],Charge +C [2],"types of activity (direct activation, direct potentiation, primed potentiation) [1]",'ago' component / ago-PAM activity ([2]; in words),effectiveness as ago-PAM compared to GAT154 [1],effectiveness as allosteric agonist compared to GAT154 [1]
"[N-]=[N+]=Nc1ccc([C@@H]2Nc3ccc(S(N)(=O)=O)cc3[C@@H]3C=CC[C@@H]32)cc1 [Compound 47, (3aS,4R,9bR)-4-(4-azidophenyl)-3a,4,5,9b-tetrahydro-3H-cyclopenta[c]quinoline-8-sulfonamide]",Inactive,Inactive,,,,
"O=S(=O)(Nc1ccccc1)c1ccc2c(c1)[C@H]1C=CC[C@H]1[C@@H](c1ccc(Br)cc1)N2 (stereo in doubt) [Compound 103, 4-(4-bromophenyl)-N-phenyl-3a,4,5,9b-tetrahydro-3H-cyclopenta[c]quinoline-8-sulfonamide]",Inactive,Inactive,,,,
"NS(=O)(=O)c1ccc2c(c1)[C@H]1C=CC[C@H]1[C@@H](c1ccc([N+](=O)[O-])cc1)N2 (stereo in doubt) [Compound 8, 4-(4-nitrophenyl)-3a,4,5,9b-tetrahydro-3H-cyclopenta[c]quinoline-8-sulfonamide]",43,318,,,,
CC(C)(C)OC(=O)Nc1ccc([C@H]2Nc3ccc(S(N)(=O)=O)cc3[C@H]3C=CC[C@H]32)cc1 [Compound 24],212,580,exhibited all three types of activities,increased ‘ago’ component,,
"NS(=O)(=O)c1ccc2c(c1)[C@H]1C=CC[C@H]1[C@@H](c1ccc(I)cc1)N2 [Compound 46, (3aR,4S,9bS)-4-(4-iodophenyl)-3a,4,5,9b-tetrahydro-3H-cyclopenta[c]quinoline-8-sulfonamide]",242,684,,,,
"NS(=O)(=O)c1ccc2c(c1)[C@H]1C=CC[C@H]1[C@@H](c1cc3ccccc3s1)N2 (stereo in doubt) [Compound 41, 4-(benzo[b]thiophen-2-yl)-3a,4,5,9b-tetrahydro-3H-cyclopenta[c]quinoline-8-sulfonamide]",3,528,,,,
"NS(=O)(=O)c1ccc2c(c1)[C@H]1C=CC[C@H]1[C@@H](c1ccc(Br)c3ccccc13)N2 (stereo in doubt) [Compound 53, 4-(4-bromonaphthalen-1-yl)-3a,4,5,9b-tetrahydro-3H-cyclopenta[c]quinoline-8-sulfonamide]",,76,,,,
"NS(=O)(=O)c1ccc2c(c1)[C@H]1C=CC[C@H]1[C@@H](c1ccc(NC(=O)OC3C4CC5CC(C4)CC3C5)cc1)N2 (stereo in doubt) [Compound 63, adamantan-2-yl (4-(8-sulfamoyl-3a,4,5,9b-tetrahydro-3H-cyclopenta[c]quinolin-4-yl)phenyl)carbamate]",5,25,,,,
"NS(=O)(=O)c1ccc2c(c1)[C@H]1C=CC[C@H]1[C@@H](c1ccc(C3(C(F)(F)F)N=N3)cc1)N2 [Compound 44, (3aR,4S,9bS)-4-(4-(3-(trifluoromethyl)-3H-diazirin-3-yl)phenyl)-3a,4,5,9b-tetrahydro-3H-cyclopenta[c]quinoline-8-sulfonamide]",14,350,,,,
"CC(C)(C)NC(=O)Oc1ccc([C@H]2Nc3ccc(S(N)(=O)=O)cc3[C@H]3C=CC[C@H]32)cc1 (stereo in doubt) [Compound 65, 4-(8-sulfamoyl-3a,4,5,9b-tetrahydro-3H-cyclopenta[c]quinolin-4-yl)phenyl tert-butylcarbamate]",332,740,,,almost equally effective as ago-PAMs,more effective as allosteric agonists
"NS(=O)(=O)c1ccc2c(c1)[C@H]1CCC[C@H]1[C@@H](c1ccc(Br)cc1)N2 (stereo in doubt) [Compound 5, 4-(4-bromophenyl)-2,3,3a,4,5,9b-hexahydro-1H-cyclopenta[c]quinoline-8-sulfonamide]",23,93,,,,
"NS(=O)(=O)c1ccc2c(c1)[C@H]1OCC[C@H]1[C@@H](c1ccc(Br)cc1)N2 (stereo in doubt) [Compound 3, 4-(4-bromophenyl)-2,3,3a,4,5,9b-hexahydrofuro[3,2-c]quinoline-8-sulfonamide]",Inactive,Inactive,,,,

# More lines, main results first:
Charge Alone [2],Charge +C [2],"types of activity (direct activation, direct potentiation, primed potentiation) [1]",'ago' component / ago-PAM activity ([2]; in words),SMILES,effectiveness as ago-PAM compared to GAT154 [1],effectiveness as allosteric agonist compared to GAT154 [1]
597,652,,,"CC(C)(C)CC(=O)Nc1ccc([C@H]2Nc3ccc(S(N)(=O)=O)cc3[C@H]3C=CC[C@H]32)cc1 (stereo in doubt) [Compound 64, 3,3-dimethyl-N-(4-(8-sulfamoyl-3a,4,5,9b-tetrahydro-3H-cyclopenta[c]quinolin-4-yl)phenyl)butanamide]",almost equally effective as ago-PAMs,more effective as allosteric agonists
Inactive,Inactive,,,"CCN(CC)S(=O)(=O)c1ccc2c(c1)[C@H]1C=CC[C@H]1[C@@H](c1ccc(Br)cc1)N2 (stereo in doubt) [Compound 55, 4-(4-bromophenyl)-N,N-diethyl-3a,4,5,9b-tetrahydro-3H-cyclopenta[c]quinoline-8-sulfonamide]",,
Inactive,Inactive,,,"CCCCNS(=O)(=O)c1ccc2c(c1)[C@H]1C=CC[C@H]1[C@@H](c1ccc(Br)cc1)N2 (stereo in doubt) [Compound 110, 4-(4-bromophenyl)-N-butyl-3a,4,5,9b-tetrahydro-3H-cyclopenta[c]quinoline-8-sulfonamide]",,
Inactive,Inactive,,,"NS(=O)(=O)c1ccc2c(c1)[C@H]1C=CC[C@H]1[C@@H](c1ccoc1)N2 (stereo in doubt) [Compound 14, 4-(furan-3-yl)-3a,4,5,9b-tetrahydro-3H-cyclopenta[c]quinoline-8-sulfonamide]",,
Inactive,Inactive,,,"CCCNS(=O)(=O)c1ccc2c(c1)[C@H]1C=CC[C@H]1[C@H](c1c(C)c(C)cc(C)c1C)N2 (stereo in doubt) [Compound 111, N-propyl-4-(2,3,5,6-tetramethylphenyl)-3a,4,5,9b-tetrahydro-3H-cyclopenta[c]quinoline-8-sulfonamide]",,
Inactive,Inactive,,,"CS(=O)(=O)c1ccc2c(c1)[C@H]1C=CC[C@H]1[C@@H](c1ccc(Br)cc1)N2 [Compound 117, 4-(4-bromophenyl)-8-(methylsulfonyl)-3a,4,5,9b-tetrahydro-3H-cyclopenta[c]quinolone]",,
Inactive,Inactive,,,"CNS(=O)(=O)c1ccc2c(c1)[C@H]1C=CC[C@H]1[C@@H](c1ccc(Br)cc1)N2 (stereo in doubt) [Compound 22, 4-(4-bromophenyl)-N-methyl-3a,4,5,9b-tetrahydro-3H-cyclopenta[c]quinoline-8-sulfonamide]",,
,500,,,"NS(=O)(=O)c1ccc2c(c1)[C@H]1C=CC[C@H]1[C@@H](c1ccsc1)N2 (stereo in doubt) [Compound 15, 4-(thiophen-3-yl)-3a,4,5,9b-tetrahydro-3H-cyclopenta[c]quinoline-8-sulfonamide]",,
Inactive,Inactive,,,"CCCNS(=O)(=O)c1ccc2c(c1)[C@H]1C=CC[C@H]1[C@H](c1ccc(Br)cc1)N2 (stereo in doubt) [Compound 106, 4-(4-bromophenyl)-N-propyl-3a,4,5,9b-tetrahydro-3H-cyclopenta[c]quinoline-8-sulfonamide]",,
330,1240,,,"CC(C)(C)CCCc1ccc([C@H]2Nc3ccc(S(N)(=O)=O)cc3[C@H]3C=CC[C@H]32)cc1 (stereo in doubt) [Compound 66, 4-(4-(4,4-dimethylpentyl)phenyl)-3a,4,5,9b-tetrahydro-3H-cyclopenta[c]quinoline-8-sulfonamide]",,
